Test results from patent US20170368082A1, “FORMULATIONS OF BRINCIDOFOVIR” (priority 2016, published 2017).

Assay: Tissue distribution by quantitative whole-body autoradiography (QWBA)
Assay type: in vivo, male Sprague Dawley and Long-Evans rats
Conditions: for AUCall Ratio (PO/IV) / Cmax Ratio (PO/IV): Group 7 vs Group 4
Experimental: The study utilized 4 groups of male SD rats (albino), and 3 groups of male LE rats (pigmented); a total of 39 rats. All animals were obtained from Hilltop Lab Animals, Inc. (Scottdale, Pa.). […] Rats in Group 5 were administered a single 2-h IV infusion of [^14C]brincidofovir at a target dose of 2 mg/kg. […] Three dosing formulations (one for high dose IV, one for low dose IV, and one for PO dose) were prepared at QPS on the day of dosing. The IV formulation for Groups 1, 2, 3, and 4 contained a vehicle of 10 mM sodium phosphate buffer in 5% dextrose solution at pH 8.0(±0.1).
Each animal, at their respective termination time points, was euthanized for QWBA analysis immediately after blood collection. One rat per time point per Group was euthanized as listed below.
The blood samples were maintained on wet ice (approximately 4° C.) and then centrifuged to obtain plasma within 1 h of the blood collection time. Centrifuge settings were recorded in the study notebook. Duplicate aliquots of plasma (0.050 mL) were analyzed for radioactivity using direct counting by LSC, and residual plasma was stored at approximately −70° C. and was saved for possible future analysis under a separate study protocol. Residual red blood cells were discarded as radioactive waste.
The pinna, distal limbs, hair, and tail were removed from each frozen carcass and each frozen carcass was embedded in an aqueous suspension of approximately 2% (w/v) carboxymethylcellulose and frozen into a block. The blocks were stored at approximately −20° C. prior to sectioning. Each blocked carcass was mounted on the object stage of a cryomicrotome (Leica CM3600 Cryomacrocut, Nussloch, Germany and Vibratome 9800, St. Louis, Mo.) maintained at approximately −20° C. and internal standards (3), which were plasma fortified with [^14C]-glucose at one concentration (approximately 0.05 μCi/mL), were placed into the frozen blocks, prior to sectioning, and were used for section thickness quality control. A number of whole-body sections (approximately 40 μm thick) were taken in the sagittal plane at various levels of interest using a whole-body cryomicrotome set at −20° C. Sagittal sections (20-50 μm thick) of frozen carcasses were exposed to phosphor imaging plates. Regions of images in tissues were converted to concentrations using standards. All of the major tissues, organs, and biological fluids were represented.
Tissue concentration data was determined for the following tissues and/or contents: adipose (brown and white), adrenal gland, bile (in duct), blood (cardiac), bone, bone marrow, brain (cerebrum, cerebellum, medulla), cecum (and contents), large intestine (and contents), epididymis, esophagus, eye (uvea and lens), Harderian gland, heart, kidney (cortex and medulla), liver, lung, lymph node, pancreas, pituitary gland, prostate gland, salivary gland, seminal vesicles, skeletal muscle, skin (pigmented and non-pigmented), small intestine (and contents), stomach (gastric mucosa and contents), spleen, spinal cord, testis, thymus, thyroid, and urinary bladder (and contents).
The imaging plate and sections were placed in light-tight exposure cassettes, in a copper-lined lead safe, for a 4-day exposure at room temperature. […] Quantification was performed by image densitometry using MCD image analysis software (v. 7.0, Interfocus Imaging Ltd) and a standard curve constructed from the integrated response [i.e., Molecular Dynamics Counts per square millimeter (MDC/mm^2)] and the nominal concentrations of the ^14C-calibration standards. The concentrations of radioactivity were expressed as the μg equivalents of [^14C]brincidofovir per gram sample (μg equiv/g). A lower limit of quantification (LLOQ) was applied to the data (See section 6.7.4).
Tissue concentrations that fell below the LLOQ were identified as being below the quantification limit (BQL). Tissue areas that were not visualized on autoradiographic images were identified as no sample (NS) and reported as BQL.

CCCCCCCCCCCCCCCCOCCCOP(=O)(O)CO[C@H](CO)Cn1ccc(N)nc1=O [[^14C] brincidofovir]
Tissue Concentration (168 h) (Skin (non-pigmented), 2 h IV infusion 15 mg/kg, Group 4, LLOQ 0.036): 0.226 μg equiv/g
Tissue Concentration (168 h) (Skin (non-pigmented), PO 15 mg/kg, Group 7, LLOQ 0.034): BQL
AUCall (Skin (non-pigmented), PO 15 mg/kg, Group 7): 14.0275 μg equiv · h/g
AUCall Ratio (PO/IV) (Skin (pigmented), 15 mg/kg): 0.18
Cmax Ratio (PO/IV) (Skin (pigmented), 15 mg/kg): 0.15
AUCall (Skin (pigmented), 2 h IV infusion 15 mg/kg, Group 4): 95.5050 μg equiv · h/g
Tissue Concentration (168 h) (Skin (pigmented), 2 h IV infusion 15 mg/kg, Group 4, LLOQ 0.036): 0.09 μg equiv/g
Tissue Concentration (168 h) (Skin (pigmented), PO 15 mg/kg, Group 7, LLOQ 0.034): BQL
AUCall (Skin (pigmented), PO 15 mg/kg, Group 7): 17.0405 μg equiv · h/g
AUCall Ratio (PO/IV) (Small Intestine, 15 mg/kg): 8.25
Cmax Ratio (PO/IV) (Small Intestine, 15 mg/kg): 6.45
AUCall (Small Intestine, 2 h IV infusion 15 mg/kg, Group 4): 1160.650 μg equiv · h/g
Tissue Concentration (168 h) (Small Intestine, 2 h IV infusion 15 mg/kg, Group 4, LLOQ 0.036): 0.339 μg equiv/g
Tissue Concentration (168 h) (Small Intestine, PO 15 mg/kg, Group 7, LLOQ 0.034): 5.867 μg equiv/g
AUCall (Small Intestine, PO 15 mg/kg, Group 7, 15 mg/kg): 9575.18 μg equiv · h/g
AUCall Ratio (PO/IV) (Spinal Cord, 15 mg/kg): 0.02
Cmax Ratio (PO/IV) (Spinal Cord, 15 mg/kg): 0.04
AUCall (Spinal Cord, 2 h IV infusion 15 mg/kg, Group 4): 5.7830 μg equiv · h/g
Tissue Concentration (168 h) (Spinal Cord, 2 h IV infusion 15 mg/kg, Group 4, LLOQ 0.036): BQL
Tissue Concentration (168 h) (Spinal Cord, PO 15 mg/kg, Group 7, LLOQ 0.034): BQL
AUCall (Spinal Cord, PO 15 mg/kg, Group 7): 0.1110 μg equiv · h/g
AUCall Ratio (PO/IV) (Spleen, 15 mg/kg): 0.27
Cmax Ratio (PO/IV) (Spleen, 15 mg/kg): 0.18
AUCall (Spleen, 2 h IV infusion 15 mg/kg, Group 4): 642.3590 μg equiv · h/g
Tissue Concentration (168 h) (Spleen, 2 h IV infusion 15 mg/kg, Group 4, LLOQ 0.036): 0.892 μg equiv/g
Tissue Concentration (168 h) (Spleen, PO 15 mg/kg, Group 7, LLOQ 0.034): 0.274 μg equiv/g
AUCall (Spleen, PO 15 mg/kg, Group 7): 172.2208 μg equiv · h/g
AUCall Ratio (PO/IV) (Stomach (mucosa), 15 mg/kg): 1.29
Cmax Ratio (PO/IV) (Stomach (mucosa), 15 mg/kg): 4.75
AUCall (Stomach (mucosa), 2 h IV infusion 15 mg/kg, Group 4): 70.2310 μg equiv · h/g
Tissue Concentration (168 h) (Stomach (mucosa), 2 h IV infusion 15 mg/kg, Group 4, LLOQ 0.036): 0.069 μg equiv/g
Tissue Concentration (168 h) (Stomach (mucosa), PO 15 mg/kg, Group 7, LLOQ 0.034): 0.042 μg equiv/g
AUCall (Stomach (mucosa), PO 15 mg/kg, Group 7): 90.7575 μg equiv · h/g
AUCall Ratio (PO/IV) (Testis, 15 mg/kg): 0.39
Cmax Ratio (PO/IV) (Testis, 15 mg/kg): 0.17
AUCall (Testis, 2 h IV infusion 15 mg/kg, Group 4): 77.2835 μg equiv · h/g
Tissue Concentration (168 h) (Testis, 2 h IV infusion 15 mg/kg, Group 4, LLOQ 0.036): 0.098 μg equiv/g
Tissue Concentration (168 h) (Testis, PO 15 mg/kg, Group 7, LLOQ 0.034): 0.041 μg equiv/g
AUCall (Testis, PO 15 mg/kg, Group 7): 30.3920 μg equiv · h/g
AUCall Ratio (PO/IV) (Thymus, 15 mg/kg): 0.13
Cmax Ratio (PO/IV) (Thymus, 15 mg/kg): 0.11
AUCall (Thymus, 2 h IV infusion 15 mg/kg, Group 4): 92.4355 μg equiv · h/g
Tissue Concentration (168 h) (Thymus, 2 h IV infusion 15 mg/kg, Group 4, LLOQ 0.036): 0.1 μg equiv/g
Tissue Concentration (168 h) (Thymus, PO 15 mg/kg, Group 7, LLOQ 0.034): BQL
AUCall (Thymus, PO 15 mg/kg, Group 7): 12.0843 μg equiv · h/g
AUCall Ratio (PO/IV) (Thyroid, 15 mg/kg): 0.13
Cmax Ratio (PO/IV) (Thyroid, 15 mg/kg): 0.13
AUCall (Thyroid, 2 h IV infusion 15 mg/kg, Group 4): 238.0230 μg equiv · h/g
Tissue Concentration (168 h) (Thyroid, 2 h IV infusion 15 mg/kg, Group 4, LLOQ 0.036): 0.459 μg equiv/g
Tissue Concentration (168 h) (Thyroid, PO 15 mg/kg, Group 7, LLOQ 0.034): 0.038 μg equiv/g
AUCall (Thyroid, PO 15 mg/kg, Group 7): 31.3395 μg equiv · h/g
AUCall Ratio (PO/IV) (Urinary Bladder, 15 mg/kg): 0.52
Cmax Ratio (PO/IV) (Urinary Bladder, 15 mg/kg): 0.16
AUCall (Urinary Bladder, 2 h IV infusion 15 mg/kg, Group 4): 215.5480 μg equiv · h/g
Tissue Concentration (168 h) (Urinary Bladder, 2 h IV infusion 15 mg/kg, Group 4, LLOQ 0.036): BQL
Tissue Concentration (168 h) (Urinary Bladder, PO 15 mg/kg, Group 7, LLOQ 0.034): 0.076 μg equiv/g
AUCall (Urinary Bladder, PO 15 mg/kg, Group 7): 111.2445 μg equiv · h/g
